Where a name gives a salt, the structure may show the parent alone.
Experiments:
[1] = target: T1, human adenosine A1 receptor (Homo sapiens, UniProt P30542); test: Adenosine A1 Receptor Functional Assay (A1GAL2); assay type: cell-based; details: CHO-K1 cells, cAMP inducible beta-galactosidase reporter, 4 nM r-PIA/1 uM Forskolin challenge
T1 construct: expressed in transfected cells; host or cells: CHO-K1
T1 sequence (P30542 1-326): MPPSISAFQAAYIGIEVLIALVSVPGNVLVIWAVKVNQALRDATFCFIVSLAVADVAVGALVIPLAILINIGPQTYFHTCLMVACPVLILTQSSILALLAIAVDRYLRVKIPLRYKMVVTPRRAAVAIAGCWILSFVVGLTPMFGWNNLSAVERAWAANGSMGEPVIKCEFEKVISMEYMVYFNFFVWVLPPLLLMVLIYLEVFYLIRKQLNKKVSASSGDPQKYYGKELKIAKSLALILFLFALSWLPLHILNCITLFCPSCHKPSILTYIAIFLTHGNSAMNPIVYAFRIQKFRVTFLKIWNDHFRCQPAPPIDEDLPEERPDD
Method: Adenosine A1 Receptor Functional Assay (A1GAL2)
(§1) To initiate the functional assay, cryopreserved CHO-K1 cells overexpressing the human adenosine A1 receptor and containing a cAMP inducible beta-galactosidase reporter gene were thawed, centrifuged, DMSO containing media removed, and then seeded with fresh culture media into clear 384-well tissue culture treated plates (BD #353961) at a concentration of 10K cells/well. Prior to assay, these plates were cultured for two days at 37° C., 5% CO2, 90% Rh. On the day of the functional assay, culture media was removed and replaced with 45 uL assay medium (Hams/F-12 Modified (Mediatech #10-080CV) supplemented w/0.1% BSA). Test compounds were diluted and 11 point curves created at a 1000× concentration in 100% DMSO. Immediately after addition of assay media to the cell plates, 50 nL of the appropriate test compound antagonist or agonist control curves were added to cell plates using a Cartesian Hummingbird. Compound curves were allowed to incubate at room temperature on cell plates for approximately 15 minutes before addition of a 4 nM r-PIA (Sigma P4532)/1 uM Forskolin (Sigma F3917) agonist challenge (5 uL volume). A control curve of r-PIA in 1 uM Forskolin, a DMSO/Media control, and a single dose of Forskolin were also included on each plate. After additions, cell plates were allowed to incubate at 37° C., 5% CO2, 90% Rh for 5.5-6 hours. After incubation, media was removed, and cell plates were washed 1×50 uL with DPBS w/o Ca & Mg (Mediatech 21-031-CV). Into dry wells, 20 uL of 1× Reporter Lysis Buffer (Promega E3971 (diluted in dH2O from 5× stock)) was added to each well and plates frozen at −20° C. overnight. For β-galactosidase enzyme calorimetric assay, plates were thawed out at room temperature and 20 μL 2× assay buffer (Promega) was added to each well. Color was allowed to develop at 37° C., 5% CO2, 90% Rh for 1-1.5 h or until reasonable signal appeared. The calorimetric reaction was stopped with the addition of 60 μL/well 1M sodium carbonate. Plates were counted at 405 nm on a SpectraMax Microplate Reader (Molecular Devices). Data was analyzed in Microsoft Excel and IC/EC50 curves were fit using a standardized macro.

[2] = target: T2, human adenosine A2a receptor (Homo sapiens, UniProt P29274); test: Adenosine A2a Receptor Functional Assay (A2AGAL2); assay type: cell-based; details: CHO-K1 cells, cAMP inducible beta-galactosidase reporter, 15 nM NECA agonist challenge
T2 construct: expressed in transfected cells; host or cells: CHO-K1
Method: Adenosine A2a Receptor Functional Assay (A2AGAL2)
as §1, with “Prior” for “To initiate the functional assay, cryopreserved CHO-K1 cells overexpressing the human adenosine A1 receptor and containing a cAMP inducible beta-galactosidase reporter gene were thawed, centrifuged, DMSO containing media removed, and then seeded with fresh culture media into clear 384-well tissue culture treated plates (BD #353961) at a concentration of 10K cells/well. Prior”, “Compound curves were allowed to incubate at room temperature on cell plates for approximately 15 minutes before addition of a 4 nM r-PIA (Sigma P4532)/1 uM Forskolin (Sigma F3917) agonist challenge (5 uL volume).” left out, “NECA,” for “r-PIA in 1 uM Forskolin,”, “Forskolin (Sigma F3917)” for “Forskolin”, “colorimetric” for “calorimetric”

[3] = target: T3, human A2a adenosine receptor (Homo sapiens, UniProt P29274); test: Ligand Binding Assay for Adenosine A2a Receptor; details: HEK293 plasma membrane, radioligand [3H]CGS21680; read-out: A2A-B Ki
T3 construct: purchased PerkinElmer RB-HA2a; host or cells: HEK293 plasma membranes
Method: Ligand Binding Assay for Adenosine A2a Receptor
Ligand binding assay of adenosine A2a receptor was performed using plasma membrane of HEK293 cells containing human A2a adenosine receptor (PerkinElmer, RB-HA2a) and radioligand [^3H]CGS21680 (PerkinElmer, NET1021). Assay was set up in 96-well polypropylene plate in total volume of 200 μL by sequentially adding 20 μL 1:20 diluted membrane, 130 μL assay buffer (50 mM Tris.HCl, pH7.4 10 mM MgCl2, 1 mM EDTA) containing [^3H] CGS21680, 50 μL diluted compound (4×) or vehicle control in assay buffer. Nonspecific binding was determined by […] NECA. Reaction was carried out at room temperature for 2 hours before filtering through 96-well GF/C filter plate pre-soaked in 50 mM Tris.HCl, pH7.4 containing 0.3% polyethylenimine. Plates were then washed 5 times with cold 50 mM Tris.HCl, pH7.4, dried and sealed at the bottom. Microscintillation fluid 30 μL was added to each well and the top sealed. Plates were counted on Packard Topcount for [^3H]. Data was analyzed in Microsoft Excel and GraphPad Prism programs. (Varani, K.; Gessi, S.; Dalpiaz, A.; Borea, P. A. British Journal of Pharmacology, 1996, 117, 1693)

T3 sequence (P29274 whole entry): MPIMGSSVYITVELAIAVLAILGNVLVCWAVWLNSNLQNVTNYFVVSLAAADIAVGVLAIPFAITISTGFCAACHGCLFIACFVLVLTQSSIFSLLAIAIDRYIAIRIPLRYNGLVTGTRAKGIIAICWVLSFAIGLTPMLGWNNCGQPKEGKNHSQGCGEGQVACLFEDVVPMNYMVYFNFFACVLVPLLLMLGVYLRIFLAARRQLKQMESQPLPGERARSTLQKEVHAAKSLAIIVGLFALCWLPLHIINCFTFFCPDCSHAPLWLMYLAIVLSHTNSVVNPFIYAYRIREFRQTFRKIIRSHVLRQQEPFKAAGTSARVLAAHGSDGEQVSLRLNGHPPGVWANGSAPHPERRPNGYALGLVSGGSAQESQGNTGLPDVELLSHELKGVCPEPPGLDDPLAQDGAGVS
T2 sequence (P29274 whole entry): as above

SMILES | Ki [1] | Ki [2] | Ki [3]
Cc1csc(-c2nc(N)c3cc(C4(c5ccccc5)CC4)sc3n2)n1 [Example 10, 2-(4-Methyl-thiazol-2-yl)-6-(1-phenyl-cyclopropyl)-thieno[2,3-d]pyrimidin-4-ylamine] | > 610 nM | 107 nM | –
CCc1ccc(-c2nc(N)c3cc(Cc4ccccc4)sc3n2)o1 [Example 8, 6-Benzyl-2-(5-ethyl-furan-2-yl)-thieno[2,3-d]pyrimidin-4-ylamine] | 223 nM | 48.8 nM | –
Cc1csc(-c2nc(N)c3cc(C(C)c4ccccc4)sc3n2)n1 (racemic) [Example 17, (±)-2-(4-Methyl-thiazol-2-yl)-6-(1-phenyl-ethyl)-thieno[2,3-d]pyrimidin-4-ylamine] | 1420 nM | 100 nM | –
COc1ccccc1C(O)c1cc2c(N)nc(-c3ccc(C(F)F)o3)nc2s1 (centres unmarked) [Example 45, [4-Amino-2-(5-difluoromethyl-furan-2-yl)-thieno[2,3-d]pyrimidin-6-yl]-(2-methoxy-phenyl)-methanol] | 34.4 nM | 4.37 nM | –
Cc1ccc(-c2nc(N)c3cc(C(C)c4ccccc4)sc3n2)o1 (racemic) [Example 16, (±)-2-(5-Methyl-furan-2-yl)-6-(1-phenyl-ethyl)-thieno[2,3-d]pyrimidin-4-ylamine] | 910 nM | 47.8 nM | –
Nc1nc(-c2cnco2)nc2sc(Cc3ccccc3)cc12 [Example 19, 6-Benzyl-2-oxazol-5-yl-thieno[2,3-d]pyrimidin-4-ylamine] | 100 nM | 2.48 nM | –
Cc1ccc(-c2nc(N)c3cc(C(=O)c4ccccc4CN4CCOCC4)sc3n2)o1 [Example 7, [4-Amino-2-(5-methyl-furan-2-yl)-thieno[2,3-d]pyrimidin-6-yl]-(2-morpholin-4-ylmethyl-phenyl)-methanone] | – | – | 328 nM
Cc1ccc(-c2nc(N)c3cc(/C=C/c4ccccc4)sc3n2)o1 [Example 33, 2-(5-Methyl-furan-2-yl)-6-styryl-thieno[2,3-d]pyrimidin-4-ylamine] | 3340 nM | 236 nM | 26 nM
Cc1ccc(-c2nc(N)c3cc(CCc4ccccc4)sc3n2)o1 [Example 22, 2-(5-Methyl-furan-2-yl)-6-phenethyl-thieno[2,3-d]pyrimidin-4-ylamine] | 2760 nM | 189 nM | 50 nM
Cc1ccc(-c2nc(N)c3cc(C(O)c4ccccc4)sc3n2)o1 (centres unmarked) [Example 2, [4-Amino-2-(5-methyl-furan-2-yl)-thieno[2,3-d]pyrimidin-6-yl]-phenyl-methanol] | 20.8 nM | 2.28 nM | –
COc1ccccc1Cc1cc2c(N)nc(-c3ccc(C)o3)nc2s1 [Example 12, 6-(2-Methoxy-benzyl)-2-(5-methyl-furan-2-yl)-thieno[2,3-d]pyrimidin-4-ylamine] | 115 nM | 10.1 nM | 51 nM
Cc1ccc(-c2nc(N)c3cc(/C=C/c4ccc(F)cc4)sc3n2)o1 [Example 30, 6-[2-(4-Fluoro-phenyl)-vinyl]-2-(5-methyl-furan-2-yl)-thieno[2,3-d]pyrimidin-4-ylamine] | 20200 nM | 938 nM | 173 nM
Cn1cnc(-c2nc(N)c3cc(Cc4ccccc4)sc3n2)c1 [Example 20, 6-Benzyl-2-(1-methyl-1H-imidazol-4-yl)-thieno[2,3-d]pyrimidin-4-ylamine] | 2330 nM | 539 nM | –
C=C(c1ccccc1)c1cc2c(N)nc(-c3nc(C)cs3)nc2s1 [Example 9, 2-(4-Methyl-thiazol-2-yl)-6-(1-phenyl-vinyl)-thieno[2,3-d]pyrimidin-4-ylamine] | > 594 nM | 31 nM | –
Nc1nc(-c2cnccn2)nc2sc(Cc3ccccc3)cc12 [Example 32, 6-Benzyl-2-pyrazin-2-yl-thieno[2,3-d]pyrimidin-4-ylamine] | 90.9 nM | 2.42 nM | –
Cc1ccc(-c2nc(N)c3cc(CCc4ccc(F)cc4)sc3n2)o1 [Example 29, 6-[2-(4-Fluoro-phenyl)-ethyl]-2-(5-methyl-furan-2-yl)-thieno[2,3-d]pyrimidin-4-ylamine] | 1570 nM | 61.2 nM | 6.61 nM
N#Cc1cccc(-c2nc(N)c3cc(Cc4ccccc4)sc3n2)n1 [Example 24, 6-(4-Amino-6-benzyl-thieno[2,3-d]pyrimidin-2-yl)-pyridine-2-carbonitrile] | > 1040 nM | 26.4 nM | –
Cc1nc(-c2nc(N)c3cc(Cc4ccccc4)sc3n2)cs1 [Example 28, 6-Benzyl-2-(2-methyl-thiazol-4-yl)-thieno[2,3-d]pyrimidin-4-ylamine] | 263 nM | 57.2 nM | –
N#Cc1ccc(-c2nc(N)c3cc(Cc4ccccc4)sc3n2)o1 [Example 18, 5-(4-Amino-6-benzyl-thieno[2,3-d]pyrimidin-2-yl)-furan-2-carbonitrile] | 3160 nM | 304 nM | –
Nc1nc(-c2ncccn2)nc2sc(Cc3ccccc3)cc12 [Example 25, 6-Benzyl-2-pyrimidin-2-yl-thieno[2,3-d]pyrimidin-4-ylamine hydrochloride] | 618 nM | 17.5 nM | –
COc1ccccc1Cc1cc2c(N)nc(-c3nc(C)cs3)nc2s1 [Example 15, 6-(2-Methoxy-benzyl)-2-(4-methyl-thiazol-2-yl)-thieno[2,3-d]pyrimidin-4-ylamine] | 186 nM | 13.2 nM | –
COc1ccccc1Cc1cc2c(N)nc(-c3ccc(C(F)F)o3)nc2s1 [Example 39, 2-(5-Difluoromethyl-furan-2-yl)-6-(2-methoxy-benzyl)-thieno[2,3-d]pyrimidin-4-ylamine] | 516 nM | 13 nM | –
Nc1nc(-c2ccc(C3CC3)o2)nc2sc(Cc3ccccc3)cc12 [Example 23, 6-Benzyl-2-(5-cyclopropyl-furan-2-yl)-thieno[2,3-d]pyrimidin-4-ylamine] | 861 nM | 263 nM | –

— patent US20100093721A1, “PHENYL AND HETEROARYL SUBSTITUTED THIENO[2,3-d]PYRIMIDINES AND THEIR USE AS ADENOSINE A2a RECEPTOR ANTAGONISTS” (priority 2008, published 2010)
